According to a melting point compilation (Tetko et al.; mined from patent text by program, amines drawn as free bases though some values may be those of a salt):

| Structure (SMILES) | melting point |
| --- | --- |
| CCOC(=O)c1cn(C)c2cnc3cc(F)c(N4CC5(C)CC4CC(C)(C)C5)cc3c2c1=O (stereo not given) | 187 °C |
| C=C(C)COc1cc(C(=O)OC)ccc1OC | 62 to 63 °C |
| CN(Cc1ccc(-c2ccc(O)c(Br)c2)cc1)C(=O)c1cn(Cc2ccccc2)c2ccccc12 | 164 to 170 °C |
| CCOC(=O)NCCN1c2ccccc2N2CCc3cccc(c32)C1C (stereo not given) | 94 to 96 °C |
| O=C(C=Cc1ccc(F)cc1)c1ccc(C(F)(F)F)cc1 | 89 to 92 °C |
| CC1(C)CCC(C)(C)c2cc(-c3cc(-c4ccc(CO)cc4)ccc3-c3ccccc3)ccc21 | 134 to 136 °C |
| COC(=O)C(Cc1ccccc1)Oc1ccc2cc(-c3cnc(Cc4ccccc4)o3)ccc2c1 (stereo not given) | 88 to 90 °C |
| COc1ccc2c(C#N)c(-c3ncc(S(=O)(=O)NC(CF)CF)cn3)n(C3CCC3)c2n1 | 229 to 230 °C |
| CCCN1c2ncccc2C(=O)N(C)c2ccc(-c3cn[nH]c3)nc21 | 206 to 207 °C |
| CCOC(=O)c1cc2c(C)ccc(N(CC)S(=O)(=O)c3cccs3)c2[nH]1 | 148 to 149 °C |
| COc1cc(CC(=O)O)ccc1OCc1nc(-c2ccco2)oc1C | 162 to 164 °C |
| Cn1cncc1C1(C(c2cccs2)c2cccs2)CCOC1=O (stereo not given) | 80 °C |
| O=C1C(c2ccccc2)=C(c2ccccc2)C(=O)N1CCc1ccc(F)cc1 | 153 to 154 °C |
| COC(=O)NNc1cc(Cl)c(C)c2c1OC(C)C2 (stereo not given) | 112 to 114 °C |
| CCOC(=O)c1cc(NCc2ccccc2)c(Nc2cccc(C(F)(F)F)c2)c(S(N)(=O)=O)c1 | 189 to 190 °C |
| Cc1ccc(NC(=O)c2cc(Cl)ccc2NCC2CCN(C3CCCC3)CC2)nc1 | 150 to 152 °C |
| N#CC(Cc1ccccc1Cl)C(=O)O (stereo not given) | 132 to 134 °C |
| CS(=O)(=O)OCCOc1ccccc1OCC(F)(F)F | 36 to 38 °C |
| ICCCn1c2ccccc2c2ccccc21 | 152 to 156 °C |
| COc1ccc2c(c1)CC(N(C)CCCN1CCc3cc(OC)c(OC)cc3NC1=O)CC2 (stereo not given) | 163 to 165 °C |
| CCNC(=NS(=O)(=O)c1ccc(C#N)cc1)N1CC(CC)C=N1 (stereo not given) | 146 to 149 °C |
| CC(C)=CCCC(C)C1CCC2C3=CC=C4CC(O)CCC4(C)C3CCC21C (stereo not given) | 114 to 117 °C |
| CCCCCCCCCCCCn1nnnc1CCC(=O)OC | 43 to 45 °C |
| COc1ccc(N=Nc2cc(OC)cc(C(C)(C)C)c2O)cc1 | 125 to 127 °C |

| Structure (SMILES) | melting point |
| --- | --- |
| COc1cc(Nc2ccc(CCCc3ccc(Cl)c(Cl)c3)cc2)c(C(=O)O)cc1[N+](=O)[O-] | 200 to 201 °C |
| O=C(NCC1CNc2ccccc2C1)OCc1ccccc1 (stereo not given) | 115 to 116 °C |
| COc1ccc(C(=O)C2CCC(C)(C(=O)O)C2(C)C)c(OC)c1 (stereo not given) | 145 °C |
| Cn1c(-c2ccc(-c3cccnc3)cc2)cnc1[C@H](Cc1ccccn1)N(C=O)c1cc2cc(Cl)ccc2o1 | 158 to 160 °C |
| COc1ccc(C(=O)Cc2ccccc2)cc1 | 68 to 69 °C |
| O=[N+]([O-])c1ccccc1Nc1ccccc1F | 58 to 59 °C |
| CCOC(=O)C(C)Oc1ccc2c(=O)c(-c3ccccc3)coc2c1 (stereo not given) | 165 to 166 °C |
| Cc1c(NC(=O)c2ccc(-c3ccc(F)cc3)cc2)ccc2cc(CN3CCC(CCCC(N)=O)CC3)cnc12 | 232 to 234 °C |
| O=c1c(Cl)c(S(=O)(=O)Cc2ccccc2)cnn1-c1ccccc1 | 154 to 156 °C |
| CN1C(=O)N(c2c(Cl)cccc2Cl)Cc2cnc(NCc3ccccc3)nc21 | 195 to 198 °C |
| CCOC(=O)CN1C(=O)C2(COc3cc4c(cc32)OCCO4)c2ccccc21 (stereo not given) | 58 to 59 °C |
| COc1ccc(-c2ncn(-c3cc(OC)c(OC)c(OC)c3)c2-c2cc(OC)c(OC)c(OC)c2)cc1OC | 160 to 161 °C |
| O=C1N(Cc2ccc(F)cc2)Cc2cncn2C1(Cc1ccccc1)c1ccc(Br)cc1 (stereo not given) | 166 to 168 °C |
| c1cc(CN2CCc3cccc(CCc4nnn[nH]4)c32)cc(OCc2ccc3ccccc3n2)c1 | 148 to 151 °C |
| C=CCC(CC=C)n1c(CC)nc2c1c(=O)n(C)c(=O)n2-c1ccc(Cl)cc1Cl | 145 to 146 °C |
| CN(CCCCC(=O)O)c1ccc([N+](=O)[O-])cc1C=O | 107 to 108 °C |
| Cc1cc(F)ccc1-c1cc(-c2ccccc2)nc(C(C)C)c1C=O | 110 to 112 °C |
| CC1CC2C3CC(Cl)C4=CC(=O)C=CC4(C)C3C(O)CC2(C)C1C(=O)CO (stereo not given) | 128 °C |
| C=CC[C@H](C(N)=O)[C@@H](CC(C)C)C(=O)NC1N=C(c2cccc(OC)c2)c2ccccc2N(C)C1=O (stereo not given in full) | 225 to 230 °C |
| O=C(C=Cc1ccc(Cl)c([N+](=O)[O-])c1)N1CCc2c([nH]c3ccccc23)C1c1ccc2c(c1)OCO2 (stereo not given) | 240 °C |
| CCCCCCCCc1ccc(OCC(=O)Cn2ccc3cc(C(=O)O)ccc32)cc1 | 122 to 124 °C |
| Cc1c(-c2ccccc2)c(N2CC[C@H](N(C)C)C2)c2oc(N3CC(O)C3)nc2c1C#N | 219 to 221 °C |
| C[C@@]1(O)CCCC[C@H]1n1nc(-c2c(-c3ccccc3)nn3ccccc23)ccc1=O (relative stereo) | 197 to 198 °C |
| COc1cc(COc2nn(-c3ccccc3)cc2C=O)ccc1OCc1nc(-c2cccc(OS(C)(=O)=O)c2)oc1C | 146 to 148 °C |

| Structure (SMILES) | melting point |
| --- | --- |
| OC1CSC(Oc2cc(-c3cncnc3)cnc2Cl)C(O)C1O (stereo not given) | 174 to 189 °C |
| CC(C)c1nc(C(O)(C(F)(F)F)C(F)(F)F)[nH]c1-c1ccccc1 | 80 to 81 °C |
| CCN1c2ccccc2CC(C#N)c2ccccc21 (stereo not given) | 127 to 129 °C |
| N#CCc1ccc(OC(F)F)c(OC2CCCC2)c1 | 39 to 41 °C |
| COc1ccc(-c2ccc(Cl)nn2)c(O)c1 | 156 to 157 °C |
| COc1cc2ncnc(N3CCC(C(C)(O)COS(=O)(=O)c4ccc(C)cc4)CC3)c2cc1OC (stereo not given) | 120 to 124 °C |
| CCC(O)(c1ccc(OCCN2CCOCC2)cc1)c1cccc(C(F)(F)F)c1 (stereo not given) | 73 to 74 °C |
| CC(=O)NC1([N+](=O)[O-])C=C(C)C=CN1 (stereo not given) | 146 to 149 °C |
| Cc1nccn1-c1nc(-c2ccc(Cl)cc2)c(CCCCO)s1 | 98 to 99 °C |
| Cc1c(CN2CCc3[nH]c4ccccc4c3C2=O)ncn1C(c1ccccc1)(c1ccccc1)c1ccccc1 | 235 to 236 °C |
| CN(C)CCNC(=O)N1CCN(c2ccc(F)cc2)CC1 | 99 to 101 °C |
| NC(=O)c1ncn2c(-c3cccc(Cl)c3)ccnc12 | 252 to 254 °C |
| O=C1Nc2ccccc2C(c2ccc(Cl)c(Cl)c2)CC1Br (stereo not given) | 183 to 188 °C |
| COCCN1CCN(CCc2ccc(Nc3ncc4c(n3)-c3ccccc3C(c3cccc(Br)c3)C4)cc2)CC1 (stereo not given) | 105 to 107 °C |
| CC(C)CC(NC(=O)OCc1ccccc1)C(=O)NC(Cc1cccc2ccccc12)C(=O)CSCc1ccco1 (stereo not given) | 71 to 74 °C |
| OCc1cc2cccc(Nc3cc(-c4ccc(C(F)(F)F)cc4)ncn3)c2[nH]1 | 221 to 223 °C |
| Cc1ccc(S(=O)(=O)OCC(COC(=O)c2ccccc2)OS(=O)(=O)c2ccc(C)cc2)cc1 (single isomer, unassigned; (-)) | 105 to 106 °C |
| CCCCOC(=O)[C@H]1CN(c2ccc(N3CCSCC3)c(F)c2)C(=O)O1 | 128 to 130 °C |
| CCOP(C)(=O)CC(Cc1ccccc1)NS(=O)(=O)c1ccc(C)cc1 (stereo not given) | 121 to 122 °C |
| C=CCN1CCN(C2N=C(N)OC2C)CC1 (stereo not given) | 99 °C |
| CCc1cc2c(s1)SCCc1cc(=O)n(-c3ccc(OC)cc3)nc1-2 | 141 to 143 °C |
| c1ccc(NCC2Oc3ccccc3O2)cc1 | 70 to 72 °C |
| CC(=O)Nc1ccc(S(=O)(=O)CCN2CCOCC2)cc1 | 136 to 137 °C |
| CCCCCC(=O)Nc1ccn(C2OC(CO)C(O)C2O)c(=O)n1 (stereo not given) | 131 to 136 °C |

| Structure (SMILES) | melting point |
| --- | --- |
| O[C@@H]1CN=C(c2ccc(N3CCOCC3)cc2)O[C@H]1c1ccccc1 (racemic) | 150 °C |
| COC(=O)Cn1c(=S)sc2ccccc21 | 127 to 128 °C |
| O=C(c1ccc(OC23CC4CC(CC(C4)C2)C3)cc1)N1CCCC1 | 111 to 113 °C |
| O=C(N[C@@H](Cc1ccccc1)C(=O)NCCCNC(=O)[C@H](Cc1ccccc1)NC(=O)OCc1ccccc1)OCc1ccccc1 | 226 to 227 °C |
| CNC(=O)c1ccc(N2CCN(Cc3cc4c(c(OC)c3)OC(C)C(=O)N4)CC2)c(Cl)c1 (stereo not given) | 200 to 203 °C |
| O=C(NCC(F)(F)F)C1(CCCCc2ccc(NS(=O)(=O)c3ccccc3[N+](=O)[O-])cc2)c2ccccc2-c2ccccc21 | 60 to 64 °C |
| CC(C)(C)C(=O)C=Cc1ccc2c(c1)OCO2 | 94 to 96 °C |
| CCNC(=O)NNC(=O)c1ccc(Cl)cc1 | 237 to 239 °C |
| CC(C)(C)c1cc(Nc2cccc(OCC(=O)O)c2)cc(C(C)(C)C)c1O | 127 to 128 °C |
| CC(C)C1(n2cccn2)CN(C(=O)O)N=C1c1ccc(F)cc1 (stereo not given) | 125 °C |
| NS(=O)(=O)OCCOc1ccc(Cl)cc1 | 117 to 119 °C |
| O=C(Nc1ccc(S(=O)(=O)C(F)(F)F)cc1Cl)c1c(O)c(C23CC4CC(CC(C4)C2)C3)cc2c1CCC2 | 218 to 219 °C |
| CCOC(=O)CCc1ccc(OCCCc2cn(-c3ccc(C(F)(F)F)cn3)nc2OCC)cc1OCc1ccccc1 | 80 to 81 °C |
| COc1ccc(C(=O)Nc2ccccc2)cc1NS(=O)(=O)Cc1ccccc1 | 216 °C |
| Cc1[nH]nc(Oc2c(Cl)cc(C(F)(F)F)cc2Cl)c1Cl | 156 to 158 °C |
| CS(=O)(=O)C1CC(=O)N1CC(=O)OCc1ccccc1 (single isomer, unassigned; (+)) | 102 to 103 °C |
| CCCCCCCCc1ccc(CCC(CCOC(C)=O)(CCOC(C)=O)NC(C)=O)cc1 | 57 to 59 °C |
| O=C(NC1CC1)C(Cl)Cl | 130 to 132 °C |
| O=c1ccn(C2OC(C(O)CO)C(O)C2O)c(=O)[nH]1 (stereo not given) | 175 to 176 °C |
| CCOC(=O)c1cn2c(=O)n(C)c3ccccc3n2c1=O | 243 to 244 °C |
| N#Cc1nc2ccc(Cl)cc2c2c1ncn2-c1ccccc1Cl | 248 to 250 °C |
| CCOC(=O)C(=O)c1csc(NC(c2ccccc2F)c2ccccc2F)n1 | 122 to 124 °C |
| CCOC(=O)c1sc(Nc2ccccc2)c2c1CCc1cn[nH]c1-2 | 202 to 203 °C |
